In US10160785B2, “Antimicrobial peptides and their use for the treatment of topical infections” (priority 2015, dated 2018):

Assays:
in vitro = details: human
Outline: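 Peptides at 2-200 μmol.l^−1 incubated 1 h at 37 °C with 5% v/v human erythrocyte suspension in physiological solution. Released haemoglobin in supernatant read at 540 nm against buffer (0%) and 0.2% Triton X100 (100%) lysis controls. LC50 is the peptide concentration lysing 50% of cells.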

[1] = test system: Candida dubliniensis ATCC MYA-646; test: microbe, parasite or virus in culture; type: cell-based; details: RPMI broth microdilution, 35° C., 48 hours, visual
Procedure: (§1) All yeasts Candida albicans (Olomouc) and ATCC MYA-2876, Candida glabrata ATCC 2001 and DSY 565, Candida dubliniensis ATCC MYA-646, Candida krusei ATCC 6258 and Candida tropicalis ATCC 750 were sub-cultured from sterile vials onto Sabouraud dextrose agar, which was composed of 40 g dextrose (Penta, Czech Republic), 10 g peptone (OXOID, Great Britain) and 17 g agar (OXOID), dissolved in 1 l of distilled water, and cultivated for 24 hours at 35° C.
(§2) All strains were stored in a way that minimizes the possibility of mutation. Candida spp. were grown overnight in liquid YPD medium which is composed of 10 g yeast extract (DIFCO, USA), 20 g peptone (OXOID), and 20 g dextrose (Penta) dissolved in 1 l distilled water. Then the overnight culture was cryogenically preserved by suspending in 50% glycerol solution (1:1) in small vials and stored at −80° C.
(§3) The inoculum was prepared by picking five colonies from 24-hour-old cultures of Candida spp. The colonies were suspended in 1 ml of sterile saline solution and vortexed for 15 seconds. Optical density of the suspension was adjusted spectrophotometrically by adding sterile saline solution to produce optical density of 0.18 at 600 nm. A working suspension was made by a 1:50 dilution followed by a 1:20 dilution of the stock suspension with RPMI 1640 broth medium which was composed of L-glutamine without NaHCO3 (BioSera, France), and with 0.165 mol.l^−1 MOPS (Duchefa, Netherland)—further as RPMI broth medium.
(§4) The broth microdilution test was performed by using sterile, disposable, multi-well microdilution plates (96-well). The peptides in the concentrations 0.625-160 μmol.l^−1 were pipetted into the wells in 100 μl volumes. Each well of the plate was inoculated with 100 μl of the diluted inoculum suspension. Final yeast density in each well was 5×10^2 up to 2.5×10^3 CFU/ml. The microdilution plates were incubated without shaking at 35° C. and observed for the presence or absence of visible growth for 48 hours.
(§5) Drug-free medium without inoculation served as negative control; the growth positive control contained inoculated drug-free medium. Amphotericin B was used as control drug to ensure quality of Candida strains.
(§6) The minimal inhibition concentrations (MICs) were visually determined 48 hours after inoculation. The MIC values were defined as the lowest concentration in which no observable growth is noticeable.
(§7) All yeast isolates were obtained from the Institute of Physiology of the Academy of Sciences of the Czech Republic. Candida albicans (Olomouc) came from the Faculty of Medicine and Dentistry, Palacý University Olomouc.

[2] = test system: Candida albicans (Olomouc); test: microbe, parasite or virus in culture; type: cell-based; details: RPMI broth microdilution, 35° C., 48 hours, visual
Procedure: as §1, §2, §3, §4, §5, §6, §7

Candida krusei ATCC 6258 = test: microbe, parasite or virus in culture; type: cell-based; details: RPMI broth microdilution, 35° C., 48 hours, visual
Procedure: as §1, §2, §3, §4, §5, §6, §7

[3] = test system: Candida albicans ATCC MYA-2876; test: microbe, parasite or virus in culture; type: cell-based; details: RPMI broth microdilution, 35° C., 48 hours, visual
Procedure: as §1, §2, §3, §4, §5, §6, §7

[4] = test system: Candida tropicalis ATCC 750; test: microbe, parasite or virus in culture; type: cell-based; details: RPMI broth microdilution, 35° C., 48 hours, visual
Procedure: as §1, §2, §3, §4, §5, §6, §7

[5] = test system: Candida glabrata ATCC 2001; test: microbe, parasite or virus in culture; type: cell-based; details: RPMI broth microdilution, 35° C., 48 hours, visual
Procedure: as §1, §2, §3, §4, §5, §6, §7

Candida glabrata DSY 565 = test: microbe, parasite or virus in culture; type: cell-based; details: RPMI broth microdilution, 35° C., 48 hours, visual
Procedure: as §1, §2, §3, §4, §5, §6, §7

[6] = test system: Methicillin resistant Staphylococcus aureus (MRSA) 6271; details: 37° C., 20 h
Procedure: (§8) Gram-positive bacteria (Micrococcus luteus, Bacillus subtilis, Staphylococcus aureus, Staphylococcus epidermidis and Enterococcus faecalis), Gram-negative bacteria (Escherichia coli and Pseudomonas aeruginosa) and the yeast (Candida albicans) were grown to exponential phase and then were diluted with fresh medium. BHI medium (Oxoid, Great Britain) was used for Enterococcus faecalis; YPD medium containing yeast extract peptone and glucose was used for Candida albicans and LB medium (Sigma, Czech Republic) was used for the remaining microorganisms. Then the microorganisms were added to the solutions of the tested antimicrobial peptides in LB medium in multi-well plates. The final peptide concentration it the wells was in the range of 0.1 to 100 μmol.l^−1. That was made by twofold serial dilution from the peptide stock solution (1 mmol.l^−1). The plates were incubated at 37° C. for 20 h while being continuously shaken in a Bioscreen C (Oy Growth Curves AB Ltd., Helsinki, Finland). Absorbance was measured at 540 nm every 15 min. Antimicrobial activity (Table 2) was determined as a quantitative minimum inhibitory concentration (MIC) by observing bacterial growth in the presence of different concentrations of tested peptides. In the experiments ca 10^5 CFU of bacteria or candida per well were routinely used.
(§9) Multiresistant clinical isolates of bacteria were obtained from University Hospital in Motol, Prague, Czech Republic and from Liberec Regional Hospital, Czech Republic. Methicillin resistant Staphylococcus aureus (MRSA) 6271 and Pseudomonas aeruginosa 5482 were from the Czech National Collection of Type Cultures, the National Institute of Public Health, Prague, Czech Republic. Other bacteria were from the Czech Collection of Microorganisms, Brno, Czech Republic. Candida albicans came from the Faculty of Medicine, Palacky University, Olomouc, Czech Republic.

Escherichia coli = details: 37° C., 20 h
Procedure: as §8, §9

[7] = test system: Enterococcus faecalis Motol; details: BHI medium, 37° C., 20 h
Procedure: as §8, §9

[8] = test system: Pseudomonas aeruginosa 5482; details: 37° C., 20 h
Procedure: as §8, §9

[9] = test system: Staphylococcus aureus Liberec; details: Staphylococcus aureus Liberec clinical isolate; 37° C., 20 h
Procedure: as §8, §9

[10] = test system: Staphylococcus epidermidis Motol; details: 37° C., 20 h
Procedure: as §8, §9

Candida albicans Olomouc = details: Candida albicans Olomouc; YPD medium; 37° C., 20 h (Example 2)
Procedure: as §8, §9

[11] = test system: Pseudomonas aeruginosa Liberec; details: Pseudomonas aeruginosa Liberec; 37° C., 20 h
Procedure: as §8, §9

[12] = test system: Staphylococcus aureus Motol; details: Staphylococcus aureus Motol clinical isolate; 37° C., 20 h
Procedure: as §8, §9

Micrococcus luteus = details: Micrococcus luteus; 37° C., 20 h
Procedure: as §8, §9

Bacillus subtilis = details: Bacillus subtilis; 37° C., 20 h
Procedure: as §8, §9

P. aeruginosa (Liberec) = test: Synergistic effect of peptides with antibiotics, FIC index; type: cell-based, Pseudomonas aeruginosa; details: FIC <0.5 synergism, 0.5-2 additive, >2 antagonism, averages of three experiments; for FIC indexes (fractional inhibitory concentration) Combination with RIF against P. aeruginosa: peptide combined with rifampicin; for FIC indexes (fractional inhibitory concentration) Combination with TET against P. aeruginosa: peptide combined with tetracycline
Procedure: (§10) MICs values of various combinations of two fold serial dilutions of peptides and antibiotics were determined using the same methodology as in the case of antimicrobial activity determination (Example 2). To consider the type of the final effect, FIC indexes (fractional inhibitory concentration) were used and calculated as follows:
(§11) [formula] where MICPC and MICAC are the MICs of the peptide and antibiotic in combination, respectively, and MICP and MICA are the MICs of the peptide and antibiotic tested alone, respectively. FIC<0.5 were considered as synergy, 0.5≤FIC≤2 as addition effect, and FIC>2 as antagonism.

S. aureus (Liberec) = test: as above; type: cell-based, Staphylococcus aureus; details: peptide combined with amoxicillin; FIC <0.5 synergism, 0.5-2 additive, >2 antagonism; averages of three experiments
Procedure: as §10, §11

Substance | HC50 at 1 h (in vitro) | Antifungal activity MIC C. dubliniensis ATCC MYA-646 [1] | Antifungal activity MIC C. albicans Olomouc [2] | Antifungal activity MIC C. krusei ATCC 6258 (Candida krusei ATCC 6258) | Antifungal activity MIC C. albicans ATCC MYA-2876 [3] | Antifungal activity MIC C. tropicalis ATCC 750 [4] | Antifungal activity MIC C. glabrata ATCC 2001 [5] | Antifungal activity MIC C. glabrata DSY 565 (Candida glabrata DSY 565) | Antimicrobial activity MIC S. a. 6271 [6] | Antimicrobial activity MIC E. c. (Escherichia coli) | Antimicrobial activity MIC E. f. Motol [7] | Antimicrobial activity MIC P. a. 5482 [8] | Antimicrobial activity MIC S. a. Liberec [9] | Antimicrobial activity MIC S. e. Motol [10] | Antimicrobial activity MIC C. a. Olomouc (Candida albicans Olomouc) | Antimicrobial activity MIC P. a. Liberec [11] | Antimicrobial activity MIC S. a. Motol [12] | Antimicrobial activity MIC M. l. (Micrococcus luteus) | Antimicrobial activity MIC B. s. (Bacillus subtilis) | FIC indexes (fractional inhibitory concentration) Combination with RIF against P. aeruginosa (P. aeruginosa (Liberec)) | further results
H-GILKSLLKKLKKIIAK-NH2 [X] | > 400 µM | 14.0 µM | 10.5 µM | 5.0 µM | 17.0 µM | 1.0 µM | 34.0 µM | 71.1 µM | 16.5 µM | 10.0 µM | 76.7 µM | 5.0 µM | 4.3 µM | 2.2 µM | 24.0 µM | 8.9 µM | 10.0 µM | 1.4 µM | 1.5 µM | 0.333 | FIC indexes (fractional inhibitory concentration) Combination with TET against P. aeruginosa (P. aeruginosa (Liberec)): 0.521; FIC indexes (fractional inhibitory concentration) Combination with AMX against S. aureus (S. aureus (Liberec)): 0.542
H-GILSKLLKKLKKIIAK-NH2 [XI] | > 400 µM | 10.5 µM | 12.0 µM | 5.0 µM | 20.0 µM | 1.0 µM | 26.0 µM | 40.0 µM | 22.7 µM | 17.5 µM | 72.7 µM | 4.5 µM | 5.9 µM | 1.8 µM | 45.3 µM | 8.5 µM | 10.0 µM | 1.6 µM | 1.4 µM | 0.344 | FIC indexes (fractional inhibitory concentration) Combination with TET against P. aeruginosa (P. aeruginosa (Liberec)): 0.646; FIC indexes (fractional inhibitory concentration) Combination with AMX against S. aureus (S. aureus (Liberec)): 0.333
